Assay results from patent US8343956B2, “Process for making a crystalline zilpaterol salt” (Intervet International B.V., priority 2008, dated 2013).
Values joined by “and” are separate entries in the source; they are usually repeats but may differ in a detail not shown here. Equal values may be shown once.

Test: Particle Size Distribution of zilpaterol hydrochloride batches
Type: physicochemical
Conditions: batches from crystallization process of Examples 4
Text: As used herein, particle size refers to a number particle size as measured by conventional particle size measuring techniques well known to those skilled in the art, such as laser scattering, sedimentation field flow fractionation, photon correlation spectroscopy, or disk centrifugation.
The particle size measurement indicated as Particle Size Distribution (relative amounts of particles present, sorted according to size) can be e.g. performed with a Malvern Mastersizer 2000 with the Hydro 2000G measuring cell, or with a Horiba LA-910 laser scattering particle size distribution analyzer.

Particle size Distribution <=15 μm (relative amount of crystal particles with size <=15 μm): 2.9% and 1.6% and 3.0%
Particle size Distribution >=200 μm (relative amount of crystal particles with size >=200 μm): 7.8% and 14.3% and 11.0%
Particle size Distribution >=250 μm (relative amount of crystal particles with size >=250 μm): 0.3% and 1.7% and 0.8%
Particle size Distribution >=300 μm (relative amount of crystal particles with size >=300 μm): 0% and 0.2%
SMILES: CC(C)N[C@@H]1CCn2c(=O)[nH]c3cccc(c32)[C@H]1O (racemic) [Example 3, trans-(±)-4,5,6,7-tetrahydro-7-hydroxy-6-[(1-methylethyl)amino]-imidazo[4,5,1-jk][1]benzazepin-2(1H)-one]
